Experimental data as given in US11814444B2, “Cyclic polypeptides for PCSK9 inhibition” (Ra Pharmaceuticals, Inc., priority 2018, dated 2023).
Numbered stars: 1 amine (or outer) side, 2 acyl side, 3 side chain; on linkers, the order of the positions; unused ones are H or OH. Bridge positions count the residues as written; N and C are the ends. Square brackets hold non-standard residues; d marks the D form. Peptide text beside a SMILES is read from it. X3 = O=C([C@@H]1C[C@@H](SCc2ccc(C[*:3])cc2)CN1[*:1])[*:2]; X2 = O=C([C@@H]1C[C@@H](SC/C=C/C[*:3])CN1[*:1])[*:2]; Trp(5-F) = N[C@@H](Cc1c[nH]c2ccc(F)cc12)C(=O)O; Trp(7-aza) = N[C@@H](Cc1c[nH]c2ncccc12)C(=O)O; Pro(cis-4-F) = O=C(O)[C@@H]1C[C@H](F)CN1; Phe(4-F) = N[C@@H](Cc1ccc(F)cc1)C(=O)O; 1Nal = N[C@@H](Cc1cccc2ccccc12)C(=O)O; mXylylene = c1cc(C[*:1])cc(C[*:2])c1; Hyp = O=C(O)[C@@H]1C[C@@H](O)CN1; NH(CH2)5NH = C(CCN[*:1])CCN[*:2]; Aad = N[C@@H](CCCC(=O)O)C(=O)O; Chg = N[C@H](C(=O)O)C1CCCCC1; Pen = CC(C)(S)[C@H](N)C(=O)O; Tle = CC(C)(C)[C@H](N)C(=O)O; αMeV = CC(C)[C@](C)(N)C(=O)O; S5 = C=CCCC[C@](C)(N)C(=O)O; NMeS = CN[C@@H](CO)C(=O)O; Nva = CCC[C@H](N)C(=O)O; Ac4c = NC1(C(=O)O)CCC1; X4 = C(CC[*:2])C[*:1]; Aib = CC(C)(N)C(=O)O; Mpa = O=C(O)CCS

What was measured:
[1] = molecular target: human PCSK9 / human LDLR EGFa domain interaction (Homo sapiens, UniProt Q8NBP7); experiment: TR-FRET assay of inhibition of the PCSK9-LDLR protein-protein interaction; format: binding; conditions: 20 nM avitag-biotinylated human PCSK9, 20 nM his-tagged human LDLR EGFa domain, 2 hours, room temperature
Chain of human PCSK9 / human LDLR EGFa domain interaction (Q8NBP7 153-692): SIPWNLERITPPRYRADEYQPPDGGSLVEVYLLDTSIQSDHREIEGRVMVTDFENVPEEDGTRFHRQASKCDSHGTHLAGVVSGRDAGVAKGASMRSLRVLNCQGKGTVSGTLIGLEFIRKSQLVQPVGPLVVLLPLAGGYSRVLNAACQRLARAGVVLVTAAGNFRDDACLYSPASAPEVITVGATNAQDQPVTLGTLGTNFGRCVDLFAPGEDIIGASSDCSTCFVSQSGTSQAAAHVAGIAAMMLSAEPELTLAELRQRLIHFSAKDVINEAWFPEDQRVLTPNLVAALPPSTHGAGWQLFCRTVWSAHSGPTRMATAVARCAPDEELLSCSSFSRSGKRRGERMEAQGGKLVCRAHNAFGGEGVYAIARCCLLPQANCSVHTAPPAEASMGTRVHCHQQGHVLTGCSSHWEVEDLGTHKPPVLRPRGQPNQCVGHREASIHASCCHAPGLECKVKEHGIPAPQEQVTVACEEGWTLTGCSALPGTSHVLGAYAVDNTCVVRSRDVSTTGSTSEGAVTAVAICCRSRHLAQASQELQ
Chain of human PCSK9 / human LDLR EGFa domain interaction (Q8NBP7 31-152 partner limits assumed): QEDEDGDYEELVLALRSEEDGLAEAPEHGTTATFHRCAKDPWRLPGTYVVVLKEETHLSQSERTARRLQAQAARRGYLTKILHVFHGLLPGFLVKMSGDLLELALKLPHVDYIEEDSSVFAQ
How it was run: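 Biotinylated PCSK9 (20 nM) and His-tagged LDLR EGFa domain (20 nM) were incubated 2 h at room temperature with 5 nM Ulight-streptavidin and 5 nM Eu-anti-His in HEPES/NaCl/CaCl2 buffer with 0.01% BSA and 0.01% P20. TR-FRET was read; half-maximal inhibitory concentrations came from 4-parameter dose-response fits.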

PCSK9 = PCSK9 (Homo sapiens, UniProt Q8NBP7); experiment: PCSK9 Alexa FRET Standard assay (displacement of AlexaFluor647 tagged cyclic peptide Reagent A); format: binding; conditions: 0.5 nM PCSK9, 20 nM AF cyclic peptide Reagent A
Chain of PCSK9 (Q8NBP7 153-692): as the sequence (Q8NBP7 153-692) above
How it was run: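 TR-FRET displacement: 0.5 nM biotinylated PCSK9 with 1.25 nM Strep-Eu and 20 nM AlexaFluor-tagged cyclic peptide (final) in 50 mM HEPES pH 7.4, 0.15 M NaCl, 5 mM CaCl2, 0.01% BSA, 0.01% P20, ≥2 h at room temperature. IC50 from sigmoidal fit, converted to Ki via peptide KD; falling Eu counts flagged false positives.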

IC50 [1] [nM]	IC50 (PCSK9) [nM]	SMILES
100 to 1000	1000 to 21000	CCC[C@@H]1NC(=O)[C@H](Cc2ccc(O)cc2)NC(=O)[C@H](CCC(=O)O)NC(=O)[C@H](Cc2ccc(F)cc2)NC(=O)[C@H](Cc2c[nH]c3ncccc23)NC(=O)[C@H]([C@@H](C)O)NC(=O)[C@H](Cc2c[nH]cn2)NC(=O)[C@H](Cc2ccc(O)cc2)NC(=O)[C@H](C(C)(C)C)NC(=O)CCSCc2cccc(c2)CSC[C@@H](C(N)=O)NC(=O)[C@H]([C@@H](C)O)NC1=O [Compound 265] ([Mpa][Tle]YHT[Trp(7-aza)][Phe(4-F)]EY[Nva]TC-NH2; linker 1-12 via mXylylene)
100 to 1000	100 to 1000	CCC[C@@H]1NC(=O)[C@H](Cc2ccc(O)cc2)NC(=O)[C@H](CCC(=O)O)NC(=O)[C@H](C2CCCCC2)NC(=O)[C@H](Cc2c[nH]c3ncccc23)NC(=O)[C@H]([C@@H](C)O)NC(=O)[C@H](Cc2c[nH]cn2)NC(=O)[C@H](Cc2ccc(O)cc2)NC(=O)[C@H](C(C)(C)C)NC(=O)CCSCc2cccc(c2)CSC[C@@H](C(N)=O)NC(=O)[C@H]([C@@H](C)O)NC1=O [Compound 273] ([Mpa][Tle]YHT[Trp(7-aza)][Chg]EY[Nva]TC-NH2; linker 1-12 via mXylylene)
1 to 100	1 to 100	CCC[C@H](NC(C)=O)C(=O)N[C@H]1CSCc2cccc(c2)CSC[C@@H](C(N)=O)NC(=O)[C@H](Cc2c[nH]c3ccc(F)cc23)NC(=O)[C@@H]2C[C@H](F)CN2C(=O)[C@H](CCCNC(=N)N)NC(=O)CNC(=O)[C@H](CO)N(C)C(=O)[C@H](Cc2c[nH]c3ccc(F)cc23)NC(=O)[C@H](Cc2ccc(O)cc2)NC(=O)[C@H](C(C)(C)C)NC(=O)[C@H]([C@@H](C)CC)NC(=O)[C@H]([C@@H](C)O)NC1=O [Compound 337] (Ac-[Nva]CTI[Tle]Y[Trp(5-F)][NMeS]GR[Pro(cis-4-F)][Trp(5-F)]C-NH2; linker 2-13 via mXylylene)
21000 to 50000	1000 to 21000	CC(=O)N[C@H]1CSCc2cccc(c2)CSC[C@H](C(N)=O)NC(=O)[C@H]([C@@H](C)O)NC(=O)[C@](C)(C(C)C)NC(=O)[C@H](Cc2ccc(O)cc2)NC(=O)[C@H](C)NC(=O)C2(CCC2)NC(=O)[C@H](Cc2c[nH]c3ncccc23)NC(=O)[C@H]([C@@H](C)O)NC(=O)[C@@H]2C[C@@H]3CN2C(=O)[C@H](Cc2ccc(O)cc2)NC(=O)[C@H](NC1=O)[C@H](C)OCCCCO3 [Compound 343] (Ac-C[dT]Y[Hyp]T[Trp(7-aza)][Ac4c]AY[αMeV]T[dC]-NH2; linker 1-12 via mXylylene; linker 2-4 via X4)
100 to 1000	100 to 1000	CCC[C@@H]1NC(=O)[C@H](Cc2ccc(O)cc2)NC(=O)[C@H](C)NC(=O)[C@]2(C)CCC/C=C/CCC[C@](C)(NC1=O)C(=O)NCCCCCNC(=O)CCC[C@H](NC(C)=O)C(=O)N[C@@H](C(C)(C)C)C(=O)N[C@@H](Cc1ccc(O)cc1)C(=O)N1CCC[C@H]1C(=O)N[C@@H]([C@@H](C)O)C(=O)N[C@@H](Cc1cccc3ccccc13)C(=O)N2 [Compound 347] (Ac-[Aad][Tle]YPT[1Nal][S5]AY[Nva][S5]; linker 1-C via NH(CH2)5NH; staple (E) 7-11)
1 to 100	1 to 100	CC(=O)N[C@H]1CCCCNC(=O)CCC[C@@H](C(N)=O)NC(=O)[C@H]([C@@H](C)O)NC(=O)[C@](C)(C(C)C)NC(=O)[C@H](Cc2ccc(O)cc2)NC(=O)[C@H](C)NC(=O)C(C)(C)NC(=O)[C@H](Cc2c[nH]c3ncccc23)NC(=O)[C@H]([C@@H](C)O)NC(=O)[C@@H]2C[C@@H]3CN2C(=O)[C@H](Cc2ccc(O)cc2)NC(=O)[C@@H](NC1=O)C(C)(C)SCc1ccc(cc1)CS3 [Compound 349] (Ac-K[Pen]Y[X3]T[Trp(7-aza)][Aib]AY[αMeV]T[Aad]-NH2; lactam 1-12; thioether 2-4)
100 to 1000	100 to 1000	CC(=O)N[C@H]1CCCCNC(=O)CCC[C@@H](C(N)=O)NC(=O)[C@H]([C@@H](C)O)NC(=O)[C@](C)(C(C)C)NC(=O)[C@H](Cc2ccc(O)cc2)NC(=O)[C@H](C)NC(=O)C(C)(C)NC(=O)[C@H](Cc2c[nH]c3ncccc23)NC(=O)[C@H]([C@@H](C)O)NC(=O)[C@@H]2C[C@@H]3CN2C(=O)[C@H](Cc2ccc(O)cc2)NC(=O)[C@@H](NC1=O)C(C)(C)SC/C=C/CS3 [Compound 350] (Ac-K[Pen]Y[X2]T[Trp(7-aza)][Aib]AY[αMeV]T[Aad]-NH2; lactam 1-12; thioether 2-4)
